{
  "source": "patent US12404283B2",
  "about": "“c-MYC mRNA translation modulators and uses thereof in the treatment of cancer” (Anima Biotech Inc., priority 2022, dated 2025)",
  "data": [
    {"test_system": "c-Myc", "assay": "c-Myc immunofluorescence assay", "assay_type": "cell-based, human", "conditions": "A549 cells, 24 hours treatment, anti-c-Myc immunofluorescence", "method_in_brief": "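A549 cells grown 48 h, exposed 24 h to rising compound concentrations, then fixed, permeabilised and stained for c-Myc plus DAPI. Nuclear-segmented c-Myc fluorescence quantified by high-content imaging at 20×; EC50 from logistic dose–response fits.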", "values": [
      {"smiles": "CNC(=O)c1ccc(-c2cn3c(n2)sc2cc(C(=O)N(C)CCCN4CCCCC4)ccc23)cc1", "note": "[compound 329, N-methyl-2-(4-(methylcarbamoyl)phenyl)-N-(3-(piperidin-1-yl)propyl)benzo[d]imidazo [2,1-b]thiazole-7-carboxamide]", "Myc Efficacy (−LogEC50)": "+ (+ >3 and <5)"},
      {"smiles": "CCN(CC)CCCNC(=O)c1ccc2c(c1)sc1nc(-c3ccncn3)cn12", "note": "[compound 330, N-(3-(diethylamino)propyl)-2-(pyrimidin-4-yl)benzo[d]imidazo[2,1-b]thiazole-7-carboxamide]", "Myc Efficacy (−LogEC50)": "+ (+ >3 and <5)"},
      {"smiles": "CCN(CC)CCCNC(=O)c1ccc2c(c1)sc1nc(-c3ccc(CNC4CC4)cc3F)cn12", "note": "[compound 331, 2-(4-((cyclopropylamino)methyl)-2-fluorophenyl)-N-(3-(diethylamino)propyl)benzo [d]imidazo[2,1-b]thiazole-7-carboxamide]", "Myc Efficacy (−LogEC50)": "+++ (+++ ≥6)"},
      {"smiles": "CCN(CC)CCCN(C)C(=O)c1ccc2c(c1)sc1nc(-c3ccc(C(=O)NC)cc3F)cn12", "note": "[compound 333, N-(3-(diethylamino)propyl)-2-(2-fluoro-4-(methylcarbamoyl)phenyl)-N-methylbenzo[d]imidazo[2,1-b]thiazole-7-carboxamide]", "Myc Efficacy (−LogEC50)": "+ (+ >3 and <5)"},
      {"smiles": "CCN(CC)CCCNC(=O)c1ccc2c(c1)sc1nc(-c3cc(F)c(CNC4CC4)cc3F)cn12", "note": "[compound 334, 2-(4-((cyclopropylamino)methyl)-2,5-difluorophenyl)-N-(3-(diethylamino)propyl)benzo [d]imidazo[2,1-b]thiazole-7-carboxamide]", "Myc Efficacy (−LogEC50)": "++ (++ ≥5 and <6)"},
      {"smiles": "CCN(CC)CCCNC(=O)c1ccc2c(c1)sc1nc(-c3ccc(CN)cc3)nn12", "note": "[compound 348, 2-(4-(aminomethyl)phenyl)-N-(3-(diethylamino)propyl)benzo [4,5]thiazolo[3,2-b][1,2,4]triazole-6-carboxamide]", "Myc Efficacy (−LogEC50)": "++ (++ ≥5 and <6)"},
      {"smiles": "CCNCCCNC(=O)c1ccc2c(c1)sc1nc(-c3ccc(C(=O)NC)cc3F)cn12", "note": "[compound 362, N-(3-(ethylamino)propyl)-2-(2-fluoro-4-(methylcarbamoyl)phenyl) benzo[d]limidazo[2,1-b]thiazole-7-carboxamide]", "Myc Efficacy (−LogEC50)": "++ (++ ≥5 and <6)"},
      {"smiles": "CNC(=O)c1ccc(-c2cn3c(n2)sc2cc(C(=O)NC4CCNCC4)ccc23)c(F)c1", "note": "[compound 363, 2-(2-fluoro-4-(methylcarbamoyl)phenyl)-N-(piperidin-4-yl)benzo[d]imidazo[2,1-b]thiazole-7-carboxamide]", "Myc Efficacy (−LogEC50)": "++ (++ ≥5 and <6)"},
      {"smiles": "CNC(=O)c1ccc(-c2cn3c(n2)sc2cc(NC(=O)C4CCNCC4)ccc23)c(F)c1", "note": "[compound 364, N-(2-(2-fluoro-4-(methylcarbamoyl)phenyl)benzo[d]imidazo[2,1-b]thiazol-7-yl)piperidine-4-carboxamide]", "Myc Efficacy (−LogEC50)": "++ (++ ≥5 and <6)"},
      {"smiles": "CCN(CC)CCCC(=O)Nc1ccc2c(c1)sc1nc(-c3ccc(C(=O)NC)cc3F)cn12", "note": "[compound 365, 4-(7-(4-(diethylamino)butanamido)benzo[d]imidazo[2,1-b]thiazol-2-yl)-3-fluoro-N-methylbenzamide]", "Myc Efficacy (−LogEC50)": "++ (++ ≥5 and <6)"},
      {"smiles": "O=C(NCCCN1CCCCC1)c1ccc2c(c1)sc1nc(-c3ccc(CNC4CC4)cc3F)cn12", "note": "[compound 368, 2-(4-((cyclopropylamino)methyl)-2-fluorophenyl)-N-(3-(piperidin-1-yl)propyl)benzo[d]imidazo [2,1-b]thiazole-7-carboxamide]", "Myc Efficacy (−LogEC50)": "+++ (+++ ≥6)"},
      {"smiles": "NCc1ccc(-c2cn3c(n2)sc2cc(C(=O)NCCCN4CCCCC4)ccc23)c(Cl)c1", "note": "[compound 369, 2-(4-(aminomethyl)-2-chlorophenyl)-N-(3-(piperidin-1-yl)propyl)benzo[d]imidazo [2,1-b]thiazole-7-carboxamide]", "Myc Efficacy (−LogEC50)": "+++ (+++ ≥6)"},
      {"smiles": "NCc1ccc(-c2cn3c(n2)sc2cc(C(=O)NCCCN4CCCCC4)ccc23)c(C2CC2)c1", "note": "[compound 370, 2-(4-(aminomethyl)-2-cyclopropylphenyl)-N-(3-(piperidin-1-yl)propyl)benzo[d]imidazo [2,1-b]thiazole-7-carboxamide]", "Myc Efficacy (−LogEC50)": "+++ (+++ ≥6)"},
      {"smiles": "NCc1ccc(-c2cn3c(n2)sc2cc(C(=O)NCCCN4CCCCC4)ccc23)c(C(F)F)c1", "note": "[compound 371, 2-(4-(aminomethyl)-2-(difluoromethyl)phenyl)-N-(3-(piperidin-1-yl)propyl)benzo[d]imidazo [2,1-b]thiazole-7-carboxamide]", "Myc Efficacy (−LogEC50)": "++ (++ ≥5 and <6)"},
      {"smiles": "NCc1ccc(-c2cn3c(n2)sc2cc(C(=O)NCCCN4CCCCC4)ccc23)c(C(F)(F)F)c1", "note": "[compound 372, 2-(4-(aminomethyl)-2-(trifluoromethyl)phenyl)-N-(3-(piperidin-1-yl)propyl)benzo[d]imidazo [2,1-b]thiazole-7-carboxamide]", "Myc Efficacy (−LogEC50)": "++ (++ ≥5 and <6)"},
      {"smiles": "O=C(NCCCN1CCCCC1)c1ccc2c(c1)sc1nc(-c3ccc(C4CCCN4)cc3)cn12", "note": "(centres unmarked) [compound 373, N-(3-(piperidin-1-yl)propyl)-2-(4-(pyrrolidin-2-yl)phenyl)benzo[d]imidazo [2,1-b]thiazole-7-carboxamide]", "Myc Efficacy (−LogEC50)": "+++ (+++ ≥6)"},
      {"smiles": "NCc1ccc(-c2cn3c(n2)sc2cc(C(=O)NCCCN4CCCCC4)ccc23)c(F)c1", "note": "[compound 374, 2-(4-(aminomethyl)-2-fluorophenyl)-N-(3-(piperidin-1-yl)propyl)benzo[d]imidazo [2,1-b]thiazole-7-carboxamide]", "Myc Efficacy (−LogEC50)": "+++ (+++ ≥6)"},
      {"smiles": "NCc1ccc(-c2cn3c(n2)sc2cc(C(=O)NCCCN4CCCCC4)ccc23)cc1F", "note": "[compound 375, 2-(4-(aminomethyl)-3-fluorophenyl)-N-(3-(piperidin-1-yl)propyl)benzo[d]imidazo [2,1-b]thiazole-7-carboxamide]", "Myc Efficacy (−LogEC50)": "+++ (+++ ≥6)"},
      {"smiles": "NCc1ccc(-c2cn3c(n2)sc2cc(C(=O)NCCCN4CCCCC4)ccc23)cc1Cl", "note": "[compound 376, 2-(4-(aminomethyl)-3-chlorophenyl)-N-(3-(piperidin-1-yl)propyl)benzo[d]imidazo [2,1-b]thiazole-7-carboxamide]", "Myc Efficacy (−LogEC50)": "+++ (+++ ≥6)"},
      {"smiles": "NCc1ccc(-c2cn3c(n2)sc2cc(C(=O)NCCCN4CCCCC4)ccc23)cc1C(F)(F)F", "note": "[compound 378, 2-(4-(aminomethyl)-3-(trifluoromethyl)phenyl)-N-(3-(piperidin-1-yl)propyl)benzo[d]imidazo [2,1-b]thiazole-7-carboxamide]", "Myc Efficacy (−LogEC50)": "+++ (+++ ≥6)"},
      {"smiles": "NCc1ccc(-c2cn3c(n2)sc2cc(C(=O)NCCCN4CCCCC4)ccc23)cc1C(F)F", "note": "[compound 379, 2-(4-(aminomethyl)-3-(difluoromethyl)phenyl)-N-(3-(piperidin-1-yl)propyl)benzo[d]imidazo [2,1-b]thiazole-7-carboxamide]", "Myc Efficacy (−LogEC50)": "+++ (+++ ≥6)"},
      {"smiles": "Cc1cc(-c2cn3c(n2)sc2cc(C(=O)NCCCN4CCCCC4)ccc23)ccc1CN", "note": "[compound 381, 2-(4-(aminomethyl)-3-methylphenyl)-N-(3-(piperidin-1-yl)propyl)benzo[d]imidazo [2,1-b]thiazole-7-carboxamide]", "Myc Efficacy (−LogEC50)": "+++ (+++ ≥6)"},
      {"smiles": "NCc1c(F)cc(-c2cn3c(n2)sc2cc(C(=O)NCCCN4CCCCC4)ccc23)cc1F", "note": "[compound 383, 2-(4-(aminomethyl)-3,5-difluorophenyl)-N-(3-(piperidin-1-yl)propyl)benzo[d]imidazo [2,1-b]thiazole-7-carboxamide]", "Myc Efficacy (−LogEC50)": "++ (++ ≥5 and <6)"}
    ]}
  ]
}
